Assay [1] addresses T1, human Werner helicase (WRN, Uniprot Q14191, amino acids 517-1235 with L1074F point mutation; WRN-BV08) (Homo sapiens, UniProt Q14191, L1074F).
T1 construct: Uniprot Q14191, amino acids 517-1235 with L1074F point mutation; 8xHis (C, cleaved yes); TEV cleavage site (ENLYFQG) (C, cleaved yes); made in house; host or cells: Sf9 insect cells (baculovirus, pFastBac)
Description: WRN (BV08) ADP-Glo assay. The note with it: WRN-BV08 (aa 517-1235, L1074F); read-out: ADP-Glo_hWRN_IC50. The class given is biochemical. The source says:
Example 2: WRN (BV08) ADP-Glo Assay Protocol
Bovine skin gelatin (BSG), dimethyl sulfoxide (DMSO), Pluronic F-127 and tris(2-carboxyethyl)phosphine hydrochloride solution (TCEP) were purchased from Sigma-Aldrich (St. Louis, MO) at the highest level of purity possible. Bicine buffer solution was purchased from Alfa Aesar (Tewksbury, MA) and compound NSC-617145 was purchased from Tocris (Minneapolis, MN). DNA duplex was synthesized at BGI (Shenzhen, China) and was composed of strand 1 with the sequence 5′-[…]-3′ (SEQ ID NO.: 1) and strand 2 with the sequence 5′-[…]-3′ (SEQ ID NO.: 2). DNA strands were annealed by heating to 95° C. for 5 minutes followed by slow cooling to room temperature. Compounds in 100% DMSO ([…]) were spotted into a 384-well white polystyrene Optiplate-384 (Perkin Elmer; Waltham, MA) assay plate using a LabCyte Echo 550 (Agilent; Santa Clara, CA). DMSO ([…]) was added to columns 12, rows A-H and column 24, rows I-P for the maximum signal control. Compound NSC-617145 ([…]) was added to columns 12, rows I-P and 24, rows A-H for the minimum signal control (100% inhibition). Compounds/DMSO were preincubated for 15 minutes at 25° C. with […] 2×WRN (BV08), prepared as described below, in assay buffer containing 20 mM Bicine (pH=7.5), 1 mM MgCl2, 10 mM KCl, 0.1% Pluronic F-127, 0.005% BSG, 1 mM TCEP. The reaction was initiated by the addition of […] 2× substrate mixture in assay buffer and incubated for 60 minutes at 25° C. The final concentrations of the assay components were 0.15 nM WRN, […], and 0.1 nM DNA duplex. The final DMSO concentration was 1% and the reference compound concentration (NSC-617145) used for the minimal signal control was […]. The reaction was stopped by the addition of the ADP-Glo Kit components (Promega; Madison, WI) as directed and the relative luminescence units (RLU) were read on an Envision 2104 (Perkin Elmer; Waltham, MA).
% Inhibition Calculation:
Where RLU=relative luminescence units, sample=signal in sample well, and MIN and MAX are the respective minimum and maximum signal controls.
Four-Parameter IC50 Fit Equation:
Where top and bottom are normally allowed to float but may be fixed at 100 or 0 respectively in a 3-parameter fit. Y is the % inhibition and X is the compound concentration.
Molecular Biology and virus production. The DNA encoding human Werner helicase (Uniprot Q14191, amino acids 517-1235 with L1074F point mutation) was generated with codon-optimization for […] expression and subcloned into the pFastBac vector with a TEV cleavable 8×His tag (SEQ ID NO: 5) (WRN—BV08). The baculovirus from the expression plasmid WRN—BV08 was generated from transfection and amplification following the manufacturer's instructions.
Sf9 cells grown in SF900II media were infected with 1:200 WRN—BV08 P2 virus and incubated for protein expression for 72 h at 27° C. The WRN protein was purified using the following protocol. The cell pellets were thawed and resuspended in buffer A (50 mM Tris, pH 7.5, 500 mM NaCl, 1 mM TCEP, 10% Glycerol) supplemented with 0.5% CHAPS, 1 mM PMSF, 1 μg/ml Leupeptin, 1 μg/ml Pepstatin, and the Pierce Universal Nuclease and cocktail tablet. Cleared lysates were loaded onto a Ni Sepharose™ excel column and washed with buffer A and bound protein was eluted with buffer A supplemented with 300 mM imidazole. The eluted protein was dialyzed against buffer A and digested by His-tagged TEV (1:5 ratio) overnight at 4° C. ZnCl2 was added into the sample at final 15 μM before loading onto a second Ni Sepharose™ excel column. Untagged WRN protein was eluted from the column with buffer A supplemented with 20 mM imidazole, dialyzed overnight into buffer B (50 mM Tris, pH 7.5, 1 mM TCEP, 10% Glycerol) supplemented with 150 mM NaCl and loaded onto a Heparin column. Proteins were eluted with a step gradient of buffer B supplemented with 150 mM, 200 mM, 300 mM and 500 mM NaCl. […]
(In general: In ADP-Glo the light output rises with the ADP produced.)

Assay [2] deals with p21 induction in HCT 116 cells. The assay is described as follows: p21 induction in cells (In-Cell Western, p21/GAPDH ratio). In kind it is cell-based. The conditions noted are these: Homo sapiens, HCT-116, 24 h, 24 h compound incubation, read-out: P21_EC50. As for the experimental part:
Example 3: Method for Determining Effect on p21 Induction in Cells
The colon carcinoma cell line HCT 116 was obtained from ATCC and cultured in growth medium consisting of Mccoy's 5A Medium (Gibco 16600108) supplemented with 10% FBS (Transgene FS201-02) and 100 units/mL penicillin-streptomycin (Gibco 15140122) and maintained at 37° C. under 5% CO2. On the day of seeding, 2,000 cells in 30 μL of culture media were plated per well to Poly-D-Lysine 384 Well Black Clear Plates (Biocoat 356663) and incubated overnight at 37° C. under 5% CO2. The following day, compounds were serially diluted in DMSO for a total of 11 test concentrations. The typical starting concentration of compounds was 10 μM with 2-fold dilutions. Next, 150 nL of diluted compound was added in duplicate to the assay plate, using an Echo 655 (Labcyte). The plate was centrifuged at 500 RPM for 1 min and then incubated at 37° C. under 5% CO2 for 24 h. After 24h, medium was removed, and cells were fixed by adding 40 μL of 4% paraformaldehyde solution to each well and incubated for 20 min at room temperature. The plate was then washed 4 times with 100 μL per well of wash buffer (PBS with 0.1% Tween-20) using a microplate washer. Next, 30 μL of ice-cold methanol was added to each well and the plate was incubated at −20° C. for 10 min. The plate was washed 4 times with 100 μL per well of wash buffer by a microplate washer, then 30 μL per well of blocking buffer (Intercept PBS blocking buffer (LI-COR 927-70001) with 0.05% Tween-20) was added and the plate was incubated at room temperature with shaking for 2h. Next, to each test well, 20 μL of primary antibody solution (p21 Waf1/CIP (12D1) RabbitmAb (Cell Signaling Technologies 2947) diluted 1:1000 and GAPDH (D4C6R) Mouse mAb (Cell Signaling Technologies 97166) diluted 1:2000 in blocking buffer) was added and the plate was placed at 4° C., overnight. The following day, the plate was washed 5 times with 100 μL per well of wash buffer using a microplate washer for 5 min. 20 μL per well of secondary antibody (IRDye 680CW Goat anti-Mouse IgG (H+L) (LI-COR 926-68070) diluted 1: 2000 in Blocking Buffer and IRDye 800CW Goat anti-Rabbit IgG (H+L) (LI-COR 926-32211) diluted 1: 2000 in Blocking Buffer) was then added and the plate was stored for 2h in the dark at room temperature with shaking. The plate was then washed 4 times with 100 μL per well of wash buffer again using a microplate washer. Finally, the p21 signal and the GAPDH signal were quantified using a LI-COR Odyssey CLx Imager machine reading at 800 nm and 700 nm, respectively. Each plate contained DMSO control (low control) and an internal reference WRN inhibitor (high control) respectively. For quantitation, the 800 nm/700 nm ratio was calculated for each well to give fold p21 induction and then percent activation for each compound well was calculated as follows (100×(ratio cpd well−ratio low control)/(ratio high control−ratio low control)). EC50 values for each compound were generated after non-linear regression curve fitting using commercially available software.

T1 sequence (Q14191 with tags, fused parts or gaps L1074F): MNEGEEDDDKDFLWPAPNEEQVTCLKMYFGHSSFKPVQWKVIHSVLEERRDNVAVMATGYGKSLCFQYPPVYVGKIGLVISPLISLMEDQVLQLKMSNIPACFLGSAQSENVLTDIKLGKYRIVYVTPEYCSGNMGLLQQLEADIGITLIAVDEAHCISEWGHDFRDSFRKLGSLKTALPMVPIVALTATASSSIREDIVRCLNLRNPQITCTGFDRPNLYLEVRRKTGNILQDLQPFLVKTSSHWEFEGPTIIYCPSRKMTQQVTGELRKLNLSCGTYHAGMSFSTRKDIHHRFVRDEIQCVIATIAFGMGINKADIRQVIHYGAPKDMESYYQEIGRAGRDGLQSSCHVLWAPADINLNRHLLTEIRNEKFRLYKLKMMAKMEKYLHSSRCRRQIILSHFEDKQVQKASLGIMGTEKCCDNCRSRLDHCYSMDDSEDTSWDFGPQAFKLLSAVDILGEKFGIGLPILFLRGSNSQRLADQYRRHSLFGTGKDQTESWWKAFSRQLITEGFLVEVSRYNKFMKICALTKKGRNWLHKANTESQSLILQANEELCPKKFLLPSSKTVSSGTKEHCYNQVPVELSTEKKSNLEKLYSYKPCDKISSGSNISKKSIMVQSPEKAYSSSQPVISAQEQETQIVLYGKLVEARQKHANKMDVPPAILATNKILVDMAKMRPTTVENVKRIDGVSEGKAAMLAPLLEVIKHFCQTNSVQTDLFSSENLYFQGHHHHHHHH

Consider `CCc1c(N2CCN(C(=O)c3ncnc(C)c3O)[C@H]3CC[C@@H]32)c(=O)n2nc(-c3ccnc(OC)c3)nc2n1CC(=O)NC12CC(C(F)(F)F)(C1)C2` [I-48, 2-(5-ethyl-6-((1S,6S)-5-(5-hydroxy-6-methylpyrimidine-4-carbonyl)-2,5-diazabicyclo[4.2.0]octan-2-yl)-2-(2-methoxypyridin-4-yl)-7-oxo-[1,2,4]triazolo[1,5-a]pyrimidin-4(7H)-yl)-N-(3-(trifluoromethyl)bicyclo[1.1.1]pentan-1-yl)acetamide], for which, in assay [1], the IC50 lay within 5 to 50 nM. Moreover, the EC50 in assay [2] is at most 500 nM.
For `CCc1c(N2CCN(C(=O)c3ncnc(C)c3O)[C@H]3CC[C@@H]32)c(=O)n2nc(C3=CCOCC3)nc2n1CC(=O)NC12CC(C3CC3)(C1)C2` [I-225, N-(3-cyclopropylbicyclo[1.1.1]pentan-1-yl)-2-(2-(3,6-dihydro-2H-pyran-4-yl)-5-ethyl-6-((1S,6S)-5-(5-hydroxy-6-methylpyrimidine-4-carbonyl)-2,5-diazabicyclo[4.2.0]octan-2-yl)-7-oxo-[1,2,4]triazolo[1,5-a]pyrimidin-4(7H)-yl)acetamide] the same measures were 5 to 50 nM and at most 500 nM.
The matching figures for `CCc1c(N2CCN(C(=O)c3ncnc(C)c3O)[C@H]3CC[C@@H]32)c(=O)c2nn(-c3ccnc(OC(F)F)c3)nc2n1CC(=O)NC12CC(C3CC3)(C1)C2` [I-223, N-(3-cyclopropylbicyclo[1.1.1]pentan-1-yl)-2-(2-(2-(difluoromethoxy)pyridin-4-yl)-5-ethyl-6-((1S,6S)-5-(5-hydroxy-6-methylpyrimidine-4-carbonyl)-2,5-diazabicyclo[4.2.0]octan-2-yl)-7-oxo-2,7-dihydro-4H-[1,2,3]triazolo[4,5-b]pyridin-4-yl)acetamide]: 5 to 50 nM and over 5000 nM.
The matching figures for `CCc1c(N2CCN(C(=O)c3c(O)ccc4ncoc34)CC2)c(=O)n2nc(C3=CCOCC3)nc2n1CC(=O)NC12CC(C3CC3)(C1)C2` [I-29, N-(3-cyclopropylbicyclo[1.1.1]pentan-1-yl)-2-(2-(3,6-dihydro-2H-pyran-4-yl)-5-ethyl-6-(4-(6-hydroxybenzo[d]oxazole-7-carbonyl)piperazin-1-yl)-7-oxo-[1,2,4]triazolo[1,5-a]pyrimidin-4(7H)-yl)acetamide]: 5 to 50 nM and at most 500 nM.
Take `CCc1c(N2CCN(C(=O)c3c(O)ccc4ncoc34)CC2)c(=O)n2nc(-c3ccnc(OC)c3)nc2n1CC(=O)NC12CC(CCF)(C1)C2` [I-31, 2-(5-ethyl-6-(4-(6-hydroxybenzo[d]oxazole-7-carbonyl)piperazin-1-yl)-2-(2-methoxypyridin-4-yl)-7-oxo-[1,2,4]triazolo[1,5-a]pyrimidin-4(7H)-yl)-N-(3-(2-fluoroethyl)bicyclo[1.1.1]pentan-1-yl)acetamide]: the IC50 in assay [1] lay within 5 to 50 nM. Also, the EC50 in assay [2] is 500 to 2000 nM.
The matching figures for `CCc1c(N2CCN(C(=O)c3ncnc(C)c3O)[C@H]3CC[C@@H]32)c(=O)c2nc(C)c(C)nc2n1CC(=O)NC12CC(C3CCC3)(C1)C2` [I-210, N-(3-cyclobutylbicyclo[1.1.1]pentan-1-yl)-2-(6-ethyl-7-((1S,6S)-5-(5-hydroxy-6-methylpyrimidine-4-carbonyl)-2,5-diazabicyclo[4.2.0]octan-2-yl)-2,3-dimethyl-8-oxopyrido[2,3-b]pyrazin-5(8H)-yl)acetamide]: 5 to 50 nM and 500 to 2000 nM.
The matching figures for `CCc1c(N2CCN(C(=O)c3ncnc(C)c3O)[C@H]3CC[C@@H]32)c(=O)c2nn(C3=CCOC(C)C3)nc2n1CC(=O)NC12CC(C3CC3)(C1)C2` (single isomer, unassigned) [I-169]: 5 to 50 nM and at most 500 nM.
As to `CCc1c(N2CCN(C(=O)c3c(OC)ncc(C4CC4)c3O)CC2)c(=O)c2nn(-c3ccnc(OC)c3)nc2n1CC(=O)NC12CC(C(C)C)(C1)C2` [I-83, 2-{6-[4-(5-cyclopropyl-4-hydroxy-2-methoxypyridine-3-carbonyl)piperazin-1-yl]-5-ethyl-2-(2-methoxypyridin-4-yl)-7-oxo-2H,4H,7H-[1,2,3]triazolo[4,5-b]pyridin-4-yl}-N-[3-(propan-2-yl)bicyclo[1.1.1]pentan-1-yl]acetamide], the EC50 in assay [2] was at most 500 nM.
With `CCc1c(N2CCN(C(=O)c3c(OC)ccc4ncoc34)[C@H]3CC[C@@H]32)c(=O)c2nn(C3=CCOCC3)nc2n1CC(=O)NC12CC(C3CC3)(C1)C2` [I-180, N-{3-cyclopropylbicyclo[1.1.1]pentan-1-yl}-2-[2-(3,6-dihydro-2H-pyran-4-yl)-5-ethyl-6-[(1S,6S)-5-(6-methoxy-1,3-benzoxazole-7-carbonyl)-2,5-diazabicyclo[4.2.0]octan-2-yl]-7-oxo-2H,4H,7H-[1,2,3]triazolo[4,5-b]pyridin-4-yl]acetamide], the IC50 in assay [1] lay in the range of 5 to 50 nM.

The record behind these values is patent publication US20250206738A1, “WRN INHIBITORS” (Nimbus Wadjet, Inc., priority 2023, published 2025).
